Here are results for 28 compounds from US8598190B2, “3H-imidazo [4, 5-C] pyridine-6-carboxamides as anti-inflammatory agents” (Boehringer Ingelheim International GmbH, priority 2008, dated 2013).

SMILES strings stand for the structures.

The first assay has as its target T1, recombinant human mPGES-1 (Homo sapiens, UniProt O14684).
T1 construct: made in house; host or cells: Rosetta E. coli (microsomal/membrane fraction)
T1 sequence (O14684 1-152): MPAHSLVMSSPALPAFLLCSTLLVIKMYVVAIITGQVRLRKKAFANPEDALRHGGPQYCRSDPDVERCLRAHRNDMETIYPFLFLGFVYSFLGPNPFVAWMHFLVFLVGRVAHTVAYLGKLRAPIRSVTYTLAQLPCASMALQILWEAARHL
The assay is described as follows: mPGES-1 inhibition test (microsomes, HTRF detection of PGE2). Type of assay: biochemical.
Details: not given
The procedure:
Microsomes from Rosetta E. coli bacteria expressing recombinant human mPGES-1 is dissolved in 0.1 M KPi pH 7.4 buffer containing 2.5 mM GSH. 50 μl of the enzyme is subsequently dispensed in a 384-well plate. 0.5 μl of the inhibitor dissolved in DMSO at is thereafter added to each well and incubated for 25 minutes at room temperature.
Subsequently, 2 μl of PGH2 dissolved in an appropriate solvent is added to each well and after one minute the acidified stop solution containing FeCl2 is added. 4 μl of the total volume is transferred to a separate plate and diluted 750-fold in two separate steps before HTRF detection of PGE2.
The HTRf detection is performed by the use of a commercially available kit from CisBio essentially according to the manufacturer's protocol. Briefly, 10 μl of the diluted sample is transferred to a white 384-well plate. 5 μl of d2 and 5 μl Eu3+-Cryptate labeled anti-PGE2 is added to each well containing samples by the use of a Multidrop. The plate is covered with a plastic self-adhesive film, centrifuged at 1200 rpm for 1 minute and subsequently stored at +4° C. over night.
After over night incubation the fluorescence is measured by the use of an appropriate microplate reader. The fluorescence of europium cryptate, and d2 are measured using the following excitation and emission wavelength, europium cryptate: λmax^ex=307 nm, λmax^em=620 nm and d2: λmax^ex=620 nm, λmax^em=665 nm), respectively. The extent of the specific FRET is measured as a ratio of the emission intensity at 665 nm vs. that at 620 nm. A standard curve using synthetic PGE2 is used to quantify the amount of PGE2 in unknown samples.
The inhibition is the change of the read-out against control, counted positive when it falls. Regarding `Cc1cc(C)nc(NC(=O)c2cc3[nH]c(Nc4c(Cl)cccc4Cl)nc3cn2)c1` [Example 716, 2-(2,6-Dichlorophenylamino)-N-(4,6-dimethyl-pyridin-2-yl)-1H-imidazo[4,5-c]pyridine-6-carboxamide], the inhibition at 10 µM turned out to be 100%.
On the same count and under the same terms, for `Cn1c(Nc2c(Cl)cccc2Cl)nc2cc(C(=O)NCc3ncccc3C(F)(F)F)ncc21` [Example 528, 2-(2,6-Dichlorophenylamino)-3-methyl-N-((3-trifluoromethyl-pyridin-2-yl)-methyl)-3H-imidazo[4,5-c]pyridine-6-carboxamide] the value was 96%; for `O=C(Nc1cc(C2CCC2)ccn1)c1cc2[nH]c(Nc3c(Cl)cncc3Cl)nc2cn1` [Example 738, 2-(3,5-Dichloro-pyridin-4-yl-amino)-N-(4-cyclobutyl-pyridin-2-yl)-1H-imidazo[4,5-c]pyridine-6-carboxamide], 100%; for `Cn1c(Nc2c(Cl)cccc2Cl)nc2cc(C(=O)NC3CCC4(CC3)CC4)ncc21` [Example 425, 2-(2,6-Dichlorophenylamino)-3-methyl-N-(spiro[2.5]octan-6-yl)-3H-imidazo[4,5-c]-pyridine-6-carboxamide], 100%.
The same measure, in the same setting: for `Cn1c(Nc2c(Cl)cncc2Cl)nc2cc(C(=O)N[C@H]3CC[C@H](C(F)(F)F)CC3)ncc21` [Example 515, 2-(3,5-Dichloropyridin-4-ylamino)-3-methyl-N-((1r,4r)-4-trifluoromethyl-cyclohexyl)-3H-imidazo[4,5-c]pyridine-6-carboxamide] the value was 100%; for `O=C(Nc1cc(C(F)(F)F)ccn1)c1cc2[nH]c(Nc3c(Cl)cccc3C(F)(F)F)nc2cn1` [Example 728, 2-(2-Chloro-6-trifluoromethyl-phenylamino)-N-(4-trifluoromethyl-pyridin-2-yl)-1H-imidazo[4,5-c]pyridine-6-carboxamide], 98%; for `O=C(Nc1cc(C(F)(F)F)ccn1)c1cc2[nH]c(Nc3c(F)cccc3C(F)(F)F)nc2cn1` [Example 727, 2-(2-Fluoro-6-trifluoromethyl-phenylamino)-N-(4-trifluoromethyl-pyridin-2-yl)-1H-imidazo[4,5-c]pyridine-6-carboxamide], 99%.
Same read-out and setting: for `O=C(Nc1cc(C(F)(F)F)cc(Cl)n1)c1cc2[nH]c(Nc3c(Cl)cncc3Cl)nc2cn1` [Example 736, 2-(3,5-Dichloro-pyridin-4-yl-amino)-N-(6-chloro-4-trifluoromethyl-pyridin-2-yl)-1H-imidazo[4,5-c]pyridine-6-carboxamide] the value was 98%.
Take `O=C(NC1CCCCC1)c1cc2[nH]c(Nc3c(Cl)cccc3Cl)nc2cn1` [Example 137, 2-(2,6-Dichloro-phenylamino)-3H-imidazo[4,5-c]pyridine-6-carboxylic acid-cyclohexyl-amide]: the inhibition at 10 µM amounted to 100%.
Same read-out and setting: for `Cn1c(Nc2c(Cl)cccc2Cl)nc2cc(C(=O)Nc3cc(C4CC4)ccn3)ncc21` [Example 462, N-(4-Cyclopropylpyridin-2-yl)-2-(2,6-dichlorophenylamino)-3-methyl-3H-imidazo[4,5-c]pyridine-6-carboxamide] the value was 94%.
The same measure, in the same setting: for `Cn1c(Nc2c(F)cccc2Cl)nc2cc(C(=O)NC3CCCCC3)ncc21` [Example 444, 2-(2-Chloro-6-fluorophenylamino)-N-cyclohexyl-3-methyl-3H-imidazo[4,5-c]-pyridine-6-carboxamide] the value was 100%; for `Cn1c(Nc2c(Cl)cccc2Cl)nc2cc(C(=O)NC3CCCCC3)ncc21` [Example 487, N-Cyclohexyl-2-(2,6-dichlorophenylamino)-3-methyl-3H-imidazo[4,5-c]pyridine-6-carboxamide], 100%.
`O=C(Nc1cc(C(F)(F)F)ccn1)c1cc2[nH]c(Nc3c(Cl)cc(F)cc3Cl)nc2cn1` [Example 730, 2-(2,6-Dichloro-4-fluoro-phenylamino)-N-(4-trifluoromethyl-pyridin-2-yl)-1H-imidazo[4,5-c]pyridine-6-carboxamide]: the inhibition at 10 µM came out at 100%.
The same measure, in the same setting: for `Cc1cnc(NC(=O)c2cc3[nH]c(Nc4c(Cl)cncc4Cl)nc3cn2)cc1C1CC1` [Example 735, 2-(3,5-Dichloro-pyridin-4-yl-amino)-N-(4-cyclopropyl-5-methyl-pyridin-2-yl)-1H-imidazo[4,5-c]pyridine-6-carboxamide] the value was 99%; for `O=C(Nc1cc(OC2CCCC2)ccn1)c1cc2[nH]c(Nc3c(Cl)cccc3Cl)nc2cn1` [Example 440, N-(4-(Cyclopentyloxy)pyridin-2-yl)-2-(2,6-dichlorophenylamino)-1H-imidazo[4,5-c]pyridine-6-carboxamide], 100%.
Take `O=C(Nc1cc(C(F)(F)F)ccn1)c1cc2[nH]c(Nc3c(Cl)cncc3Cl)nc2cn1` [Example 366, 2-(3,5-Dichloropyridin-4-ylamino)-N-(4-trifluoromethyl-pyridin-2-yl)-1H-imidazo[4,5-c]pyridine-6-carboxamide]: the inhibition at 10 µM stood at 100%.
The same measure, in the same setting: for `Cc1cnc(NC(=O)c2cc3nc(Nc4c(Cl)cccc4Cl)n(C)c3cn2)cc1C` [Example 724, 2-(2,6-Dichlorophenylamino)-3-methyl-N-(4,5-dimethyl-pyridin-2-yl)-3H-imidazo[4,5-c]pyridine-6-carboxamide] the value was 100%.
Still for that read-out and setting: for `CC(C)c1ccc(NC(=O)c2cc3[nH]c(Nc4c(Cl)cncc4Cl)nc3cn2)nc1` [Example 737, 2-(3,5-Dichloro-pyridin-4-yl-amino)-N-(5-isopropyl-pyridin-2-yl)-1H-imidazo[4,5-c]pyridine-6-carboxamide] the value was 97%; for `O=C(NCc1ccccc1C(F)(F)F)c1cc2[nH]c(Nc3c(Cl)cccc3Cl)nc2cn1` [Example 477, 2-(2,6-Dichlorophenylamino)-N-(2-trifluoromethyl-benzyl)-1H-imidazo[4,5-c]pyridine-6-carboxamide], 97%.
The same measure, in the same setting: for `Cn1c(Nc2c(F)cccc2Cl)nc2cc(C(=O)Nc3cc(C(F)(F)F)ccn3)ncc21` [Example 360, 2-(2-Chloro-6-fluoro-phenylamino)-3-methyl-N-(4-trifluoromethyl-pyridin-2-yl)-3-H-imidazo[4,5-c]pyridine-6-carboxamide] the value was 100%; for `O=C(Nc1cc(C(F)(F)F)ccn1)c1cc2[nH]c(Nc3c(F)cc(F)cc3Cl)nc2cn1` [Example 731, 2-(2-Chloro-4,6-difluoro-phenylamino)-N-(4-trifluoromethyl-pyridin-2-yl)-1H-imidazo[4,5-c]pyridine-6-carboxamide], 100%; for `O=C(NCc1ncccc1C(F)(F)F)c1cc2[nH]c(Nc3c(Cl)cccc3Cl)nc2cn1` [Example 509, 2-(2,6-Dichlorophenylamino)-N-((3-trifluoromethyl-pyridin-2-yl)methyl)-1H-imidazo[4,5-c]pyridine-6-carboxamide], 97%.
As for `Cn1c(Nc2c(Cl)cncc2Cl)nc2cc(C(=O)NCc3ncccc3C(F)(F)F)ncc21` [Example 550, 2-(3,5-Dichloropyridin-4-ylamino)-3-methyl-N-((3-trifluoromethyl-pyridin-2-yl)-methyl)-3H-imidazo[4,5-c]pyridine-6-carboxamide], the inhibition at 10 µM turned out to be 95%.
Still for that read-out and setting: for `Cc1cc(NC(=O)c2cc3[nH]c(Nc4c(Cl)cccc4Cl)nc3cn2)ncc1F` [Example 719, 2-(2,6-Dichlorophenylamino)-N-(5-fluoro-4-methyl-pyridin-2-yl)-1H-imidazo[4,5-c]pyridine-6-carboxamide] the value was 100%; for `Cn1c(Nc2c(F)cccc2Cl)nc2cc(C(=O)Nc3ccc(Br)cc3)ncc21` [Example 361, N-(4-Bromophenyl)-2-(2-chloro-6-fluoro-phenylamino)-3-methyl-3H-imidazo[4,5-c]pyridine-6-carboxamide], 100%; for `Cn1c(Nc2cnccc2C(F)(F)F)nc2cc(C(=O)Nc3cc(C(F)(F)F)ccn3)ncc21` [Example 734, 2-(4-Trifluoromethyl-pyridin-3-ylamino)-3-methyl-N-(4-trifluoromethyl-pyridin-2-yl)-3H-imidazo[4,5-c]pyridine-6-carboxamide], 99%.
The same measure, in the same setting: for `O=C(Nc1ccc(C2CC2)cn1)c1cc2[nH]c(Nc3c(Cl)cccc3Cl)nc2cn1` [Example 725, 2-(2,6-Dichlorophenylamino)-N-(5-cyclopropyl-pyridin-2-yl)-1H-imidazo[4,5-c]pyridine-6-carboxamide] the value was 100%.

The same assay, now with this note: percentage inhibition of mPGES-1 at 10 μM (unless otherwise specified).
Turning to `Cn1c(Nc2c(Cl)cccc2Cl)nc2cc(C(=O)Nc3ccc(Br)cc3)cnc21` [Example 463], the “% inhib.” value was 97%.
